Tests used:
PC-3 = experiment: Antiproliferative activity against human PC3 cells treated for 24 hrs measured after 72 hrs by MTT assay; format: functional, cell-based
HepG2 = experiment: Antiproliferative activity against human HepG2 cells treated for 24 hrs measured after 72 hrs by MTT assay; format: functional, cell-based
THP-1 = experiment: Antiproliferative activity against human THP1 cells treated for 24 hrs measured after 72 hrs by MTT assay; format: functional, cell-based
HL-60 = experiment: Antiproliferative activity against human HL60 cells treated for 24 hrs measured after 72 hrs by MTT assay; format: functional, cell-based
PBMC = experiment: Antiproliferative activity against human PBMC treated for 24 hrs measured after 72 hrs by MTT assay; format: cell-based

Compound | IC50 (PC-3) [µM] | IC50 (HepG2) [µM] | IC50 (THP-1) [µM] | IC50 (HL-60) [µM] | IC50 (PBMC) [µM]
COC(=O)[C@H](Cc1ccc(N(CCCl)CCCl)cc1)NC(=O)CCC(=O)OCCn1c2c(c3ccccc31)CCN1C(=O)c3ccccc3N(C)C21 (stereo partly drawn) | > 100 | > 100 | 9.37 | 3.11 | > 200
CN1c2ccccc2C(=O)N2CCc3c(n(CCO)c4ccccc34)C21 (stereo not drawn) | 12.3 | > 100 | 1.64 | 7.1 | > 200
CN1c2ccccc2C(=O)N2CCc3c(n(CCOC(=O)c4ccc(N(CCCl)CCCl)cc4)c4ccccc34)C21 (stereo not drawn) | > 100 | > 100 | 33.6 | 27.2 | > 200
CN1c2ccccc2C(=O)N2CCc3c(n(CCCOCCCOC(=O)CCCc4ccc(N(CCCl)CCCl)cc4)c4ccccc34)C21 (stereo not drawn) | 27.6 | > 100 | 5.31 | 1.29 | > 200
CN1c2ccccc2C(=O)N2CCc3c([nH]c4ccccc34)C21 (stereo not drawn) | 14 | 9.32 | 3.37 | 1.39 | 22.9
CN1c2ccccc2C(=O)N2CCc3c(n(CCCOC(=O)CCCc4ccc(N(CCCl)CCCl)cc4)c4ccccc34)C21 (stereo not drawn) | > 100 | > 100 | 5.68 | 4.3 | > 200
O=C(O)CCCc1ccc(N(CCCl)CCCl)cc1 [CHLORAMBUCIL] | 42.1 | > 100 | 5.3 | 12.9 | > 200
O=c1[nH]cc(F)c(=O)[nH]1 [FLUOROURACIL] | 23.9 |  | 4.87 | 3.69 | 
COC(=O)[C@H](Cc1ccc(N(CCCl)CCCl)cc1)NC(=O)CCC(=O)OCCCCCCn1c2c(c3ccccc31)CCN1C(=O)c3ccccc3N(C)C21 (stereo partly drawn) | > 100 | > 100 | 4.24 | 2.84 | > 200
CN1c2ccccc2C(=O)N2CCc3c(n(CCCCCCOC(=O)CCCc4ccc(N(CCCl)CCCl)cc4)c4ccccc34)C21 (stereo not drawn) | > 100 | > 100 | 10.5 | 17.5 | > 200
